Data reported in PubChem BioAssay AID743134 (The Scripps Research Institute Molecular Screening Center, 2013).
Activity calls are given as the source filed them.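 The calls were made as follows: active = compound cutting LYPLA1 and LYPLA2 activity by half or more in mouse liver, kidney or brain after 5 mg/kg; inactive = the rest.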

Target: Acyl-protein thioesterase 1 (Mus musculus) (UniProt P97823)
Assay: APT1 inhibition after dosing, tissue ABPP readout – mouse liver, brain, kidney proteomes, fluorescence gel, in vivo study for LYPLA1/LYPLA2 inhibitor project, late-stage follow-up (AID 743134)
Details: C57BL6 mice i.p., tissue gel-based ABPP FP-Rh, 4 h

Acyl-protein thioesterase 1 (Mus musculus), sequence (P97823 whole entry, looked up): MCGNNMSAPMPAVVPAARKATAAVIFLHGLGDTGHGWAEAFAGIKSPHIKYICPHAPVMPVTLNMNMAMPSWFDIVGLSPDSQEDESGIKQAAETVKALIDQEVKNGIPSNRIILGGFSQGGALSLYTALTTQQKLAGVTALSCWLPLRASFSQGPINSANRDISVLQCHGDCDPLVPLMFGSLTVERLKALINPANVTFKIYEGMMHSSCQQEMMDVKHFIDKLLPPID

With O=C(ON1C(=O)C2CN(C(=O)N3CCOCC3)CCN2C1=O)N1CCC(CCc2ccc(Cl)cc2)CC1 (stereo not drawn) the outcome (Brain soluble proteome) was “inactive”, the outcome (Kidney soluble proteome) was “active” and the outcome (Liver soluble proteome) was “active”.
